Experimental data: patent publication US9745357B2, “Peptides used for treating cancers and, in particular, chronic lymphoid leukaemia” (Centre National de la Recherche Scientifique, priority 2009, dated 2017)

Columns and labels:
[1] = system: B lymphocytes from patients suffering from chronic lymphoid leukemia (CLL); details: for cell effect CLL 40 (survival): 4 hours of culture, cells not labeled with annexin or propidium iodide; for effect of the peptide on cell mortality, in words (relative to A1 WT IRS): 40 μM, 4 hours, FIG. 9
Procedure: Peripheral blood B lymphocytes taken from patients suffering from CLL and then purified on a Ficoll cushion and placed in culture are incubated in the presence of […] of the peptides described for FIG. 2. The percentage cell survival after 4 hours (gray column) or 24 hours (white column) of culture corresponds to the percentage of cells labeled neither with annexin nor with propidium iodide, evaluated by flow cytometry.
The CLL B lymphocytes were obtained from peripheral blood of 18 different patients suffering from chronic lymphoid leukemia. […] The samples were taken in the Brest hospital center, in the hematology department. The blood samples were taken after informing the patients and obtaining their informed consent.
The lymphocytes, mononuclear cells, were isolated from the heparinized peripheral blood samples by Ficoll-Hypaque (LSM 1077 lymphocyte, euro-bio) centrifugation. The red blood cells were lyzed by incubation for 10 min in VersaLyse Lysing Solution (Beckman Coulter). The mononuclear cells are obtained after 2 washes in culture medium (RPMI1640, Gibco BRL).
(§1) The cells were cultured in a culture medium composed either of RPMI 1640 (B lymphocytes) or of DMEM (COS7, HCT116, HGT1, 293, HeLa) containing 10% of FCS (fetal calf serum, 1% of penicillin-streptomycin and 1% of glutamine, Gibco BRL). The cells are distributed in a 24-well plate and cultured at 37° C. in a humid atmosphere under 5% CO2.
(§2) 400 μl of cell suspension (1×10^6 cells/ml) per well were treated for 4 h or 24 h with various concentrations of peptides. The test for activity of the peptides in the presence of emetine (FIG. 6) was carried out by preincubating the cells with 100 μM of emetine for one hour before the addition of peptide.
(§3) After the cells have been washed with PBS, they were analyzed using the Annexin V-FITC IP system according to the supplier's recommendations (Beckman Coulter).
The cells taken from patients suffering from chronic lymphoid leukemia were purified on a Ficoll cushion. […] The cells were placed in culture in RPMI medium in the presence of 10% FCS (fetal calf serum). The peptides were added directly to the culture medium. These peptides comprise the IRS sequence (the amino acid sequence of which is RYIRS) which is known to allow the penetration of peptides into B lymphocytes in culture (Dong et al., 2005). […] The cells which survive the treatment are those which are labeled neither with annexin nor with propidium iodide.

[2] = system: Jok cells (cell line derived from B lymphocytes); experiment: Cell survival of Jok cells, annexin/propidium iodide flow cytometry; assay type: cell-based, human; details: for cell effect Jok 20 (survival): 20 μM peptide; for cell effect Jok 20 (survival) / cell effect Jok 40 (survival): 4 hours of culture, cells not labeled with annexin or propidium iodide; for effect of the peptide on cell mortality, in words (relative to A1 WT IRS): 4 hours, FIG. 9; for cell effect Jok 40 (survival): 40 μM peptide
Procedure: The cells are treated as indicated for FIG. 7, with the CLL cells, control T lymphocytes and Jok lymphocytes, which are incubated with the A1 WT IRS peptide and derivatives thereof described in table 1. The Jok cells were incubated either with 20 μM (JOK 20) or with 40 μM (JOK 40) of each of the peptides. In the interests of simplifying the legend, the A1 WT IRS peptide is referred to as “WT”. Likewise, the derivatives thereof are referred to by the name of the mutations (A1 K3I IRS is referred to as “K3I”, for example).
as §1, §2, §3
The peptides were tested on B lymphocytes from patients suffering from chronic lymphoid leukemia, control T lymphocytes, or Jok cells (cell line derived from B lymphocytes). The experiment was repeated three times for each type of cell tested.

[3] = system: control T lymphocytes (patients suffering from hemochromatosis); experiment: Cell survival of control T lymphocytes, annexin/propidium iodide flow cytometry; assay type: cell-based, human; details: 40 μM, 4 hours; FIG. 9
[4] = system: control T lymphocytes (patients suffering from hemochromatosis); experiment: as above; assay type: cell-based, human; details: 40 μM peptide, 4 hours of culture, cells not labeled with annexin or propidium iodide
Procedure: FIG. 7: Activity of the A1WT peptide on cells of lymphocytic, lymphoid, gastric, colonic or renal origin The cells are prepared and placed in culture (see Materials and Methods) and then incubated for 4 H with the A1WT or A1 YALA peptide. The percentage cell survival corresponds to the percentage of cells labeled neither with annexin nor with propidium iodide, evaluated by flow cytometry. The names of the pathological conditions from which the patients from whom the samples are taken are suffering are indicated under the figure. The control T (L.T.) and B (L.B.) lymphocytes are taken from patients suffering from a disease not related to a lymphocytic pathological condition (hemochromatosis).
The control B lymphocytes and T lymphocytes originate from peripheral blood samples from patients suffering from hemochromatosis, provided by the CTS transfusion center in Brest. The B and T lymphocytes were isolated using the Rosett-Sep kit (Stemcell Technologies) according to the supplier's recommendations.
as §1, §2, §3

[5] = concentration not given (20 or 40 μM)

Compound	cell survival with emetine alone ([1]; 100 μM emetine, after 4 H of incubation (from 97%), FIG. 6)	cell effect Jok 20 (survival) [2]	effect of the peptide on cell mortality, in words (relative to A1 WT IRS) ([2]; 20 μM)	cell effect Jok 40 (survival) [2]	effect of the peptide on cell mortality, in words (relative to A1 WT IRS) ([2]; 40 μM)	effect of the peptide on cell mortality, in words (relative to A1 WT IRS) [3]	cell effect LT 40 (survival) [4]	cell effect CLL 40 (survival) ([1]; 40 μM peptide)	effect of the peptide on cell mortality, in words (relative to A1 WT IRS) [1]	effect on percentage cell survival ([1]; 40 μM peptide, 4 H and 24 H, FIG. 3)	action of the peptide on cell survival, in words, cell type not given ([1]; Example 6 (CLL cells, control T lymphocytes, Jok cells))	effect of the peptide on cell mortality, in words (relative to A1 WT IRS) [2, 5]
CC[C@H]1CN2CCc3cc(OC)c(OC)cc3[C@@H]2C[C@@H]1C[C@H]1NCCc2cc(OC)c(OC)cc21 [emetine, reference compound]	82%											
GGKYGRDFLLRFRYIRS [A1 R1, 2G IRS]		− (−: survival >50%)	abolishes the effect	+/− (+/−: survival between 25 and 50%)	only partially decreased	abolishes the effect	− (−: survival >50%)	− (−: survival >50%)	abolishes the effect			
KKKYGRDFLLRFRYIRS [A1 R1, 2K IRS]		+/− (+/−: survival between 25 and 50%)	decreases the effect	+ (+: survival <25%)	the same effect as the A1 WT IRS peptide	decreases the effect	+/− (+/−: survival between 25 and 50%)	+ (+: survival <25%)	decreases the effect			
KYGRDFLLRFRYIRS [A1 del2 IRS]		+/− (+/−: survival between 25 and 50%)	loss of effect	+ (+: survival <25%)	considerable mortality	loss of effect	− (−: survival >50%)	− (−: survival >50%)	loss of effect			
RIIYDRHFLLNMRYIRS [BPSg WT IRS, reference compound]										the percentage survival did not decrease		
RIKYDRKFLLDRRYIRS [BP2 I3K IRS, reference compound]		− (−: survival >50%)		− (−: survival >50%)			− (−: survival >50%)	− (−: survival >50%)			does not confer a better efficacy	
RRIYGRDFLLRFRYIRS [A1 K3I IRS]		+/− (+/−: survival between 25 and 50%)	partially	+ (+: survival <25%)				− (−: survival >50%)	loss of effect			
RRKYARDFLLRFRYIRS [A1 G5A-IRS]		+ (+: survival <25%)		+ (+: survival <25%)		slightly increases the effect	+ (+: survival <25%)	+ (+: survival <25%)	slightly increases the effect			slightly increases the effect
RRKYGHDFLLRFRYIRS [A1 R6H IRS]		+ (+: survival <25%)		+ (+: survival <25%)		abolishes the effect	+/− (+/−: survival between 25 and 50%)	+/− (+/−: survival between 25 and 50%)	abolishes the effect			the effect is potentiated
RRKYGKDFLLRFRYIRS [A1 R6K IRS]		+/− (+/−: survival between 25 and 50%)		+ (+: survival <25%)		partially decreases the action	+/− (+/−: survival between 25 and 50%)	+ (+: survival <25%)	partially decreases the action			partially decreases the action
RRKYGRAFLLFRFYIRS [A1 D7A IRS]		+ (+: survival <25%)		+ (+: survival <25%)		does not modify the action	+ (+: survival <25%)	+ (+: survival <25%)	does not modify the action			
RRKYGRDFLLRKRYIRS [A1 F12K IRS]		− (−: survival >50%)		− (−: survival >50%)		completely abolishes the action	− (−: survival >50%)	− (−: survival >50%)	completely abolishes the action			completely abolishes the action
RRKYGRDFLLRWRYIRS [A1 F12W IRS]		+ (+: survival <25%)		+/− (+/−: survival between 25 and 50%)		does not modify the action	+ (+: survival <25%)	+ (+: survival <25%)	does not modify the action			does not modify the action
RRKYGREFLLRFRYIRS [A1 D7E IRS]		+ (+: survival <25%)		+ (+: survival <25%)		does not modify the action	+ (+: survival <25%)	+ (+: survival <25%)	does not modify the action			its effect is potentiated
RRKYSRDFLLRFRYIRS [A1 G5S IRS]		+ (+: survival <25%)		+ (+: survival <25%)		slightly increases the effect	+ (+: survival <25%)	+ (+: survival <25%)	slightly increases the effect			slightly increases the effect
RRRYGRDFLLRFRYIRS [A1 K3R IRS]		+ (+: survival <25%)		+ (+: survival <25%)		does not modify the effect	+ (+: survival <25%)	+ (+: survival <25%)	does not modify the effect			does not modify the effect
